Test [1] relates to 697 B-cell NF-kB luciferase reporter, PMA/ionomycin, 16 h. The experiment in a line: inhibitors of antigen receptor-driven NF-kB, dose response, 697 B cells, PMA/ionomycin, luminescence (AID 489034).
Assay in test [2]: as above
As to conditions: 697 B-cell NF-kB luciferase reporter, PMA/ionomycin, 16 h; at 80 µM (top of the series).

The structures appear in SMILES notation. The source made the active and inactive calls.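 How the source made its calls: active means mean IC50 at or below a set limit; inactive means the rest.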

On to `COc1ccc(OC)c(C2C3=C(COC3=O)Nc3cc4c(cc32)OCO4)c1` (stereo not drawn), for which the IC50 – broadly, the midpoint of a concentration-inhibition curve – in test [1] is > 80000 nM (inactive). Take `C[n+]1c(-c2ccccc2)c2cc(N)ccc2c2ccc(N)cc21`: in test [1], the IC50 is > 80000 nM (inactive).

For the molecule `O=C(COC(=O)c1ccc[nH]c1=O)Nc1ccc(N2CCCCC2)cc1`, the concentration for half-maximal inhibition (IC50) in test [1] was 436 nM. In the case of `COc1ccc(CNc2ncc(-c3ccc(F)cc3)n2C)c2ccccc12`, the IC50 in test [1] is 1570 nM. Still for that read-out and setting: to `C#CC(=O)N(c1ccc(OC)cc1OC)C(C(=O)NC1CCCC1)c1cccs1` (stereo not drawn) belongs 252 nM; to `Cc1nn(C(C)(C)C)c(C)c1/C=N/OC(=O)Nc1ccc(Cl)cc1`, below 160 nM. `Cc1cc(N2CCN(c3nc4ccccc4s3)CC2)n2ncnc2n1`: the IC50 in test [1] is > 80000 nM (inactive). On to `COc1ccc(CCNc2c(C)c(C)nc3ncnn23)cc1`, for which the IC50 in test [1] is > 80000 nM (inactive). Regarding `O=C(Nc1ccc([N+](=O)[O-])cc1)C(=O)Nc1cccc(C(=O)O)c1`, the IC50 in test [1] is 946 nM.

As to `COC1=CC(=O)[C@]2(C=C1OC)OC[C@@H]1Oc3c(ccc4c3C=CC(C)(C)O4)C(=O)[C@@H]12`, the IC50 in test [1] was 47700 nM (inactive). Regarding `Cc1ccc(C(=O)CN2C(=O)c3ccccc3S2(=O)=O)cc1`, in test [1], the IC50 was 1330 nM. On to `CCOC(=O)C1CCCN(S(=O)(=O)c2ccc(S(=O)(=O)N(CC)CC)cc2)C1` (stereo not drawn), for which the IC50 in test [1] is > 80000 nM (inactive). As for `CCCCCCCCCCOC(=O)Cn1c(COc2ccccc2OC)[n+](C)c2ccccc21`, the IC50 in test [1] is > 80000 nM (inactive). On to `Cc1cc(Cl)c(S(=O)(=O)N2CCN(c3ccc(F)cc3)CC2)cc1OCC(=O)NC1CCCCC1`, for which the IC50 in test [1] is > 80000 nM (inactive). `O=C(CCl)N=c1sccn1Cc1ccccc1Cl`: the half-maximal inhibitory concentration (IC50) in test [1] is 222 nM.

Take `CCCCC[n+]1cccc2c3ccccc3ccc21`: the IC50 in test [1] is > 80000 nM (inactive). Take `CCOc1ccc(S(=O)(=O)NCc2ccncc2)cc1`: the IC50 in test [1] is > 80000 nM (inactive). Same read-out and setting: to `Cn1nccc1C(=O)NC1CCCc2c1cnn2-c1ccc(F)cc1F` (stereo not drawn) belongs > 80000 nM (inactive); to `N=c1c2c(-c3ccccc3)c(-c3ccccc3)n(Cc3ccccc3)c2ncn1CCCn1ccnc1`, 32200 nM (inactive). With `C[C@H](NC(=O)c1nc[nH]c1C(=O)N[C@@H](C)C(=O)OCc1ccccc1)C(=O)OCc1ccccc1`, the IC50 in test [1] was > 80000 nM (inactive). The same measure, in the same setting: the result for `COCCn1c(C)cc(C2=NNC(=NC3CC3)SC2)c1C` reads below 160 nM; that for `CC(C)(O)c1[nH]c2ccc(C#N)cc2c1C(C)(C)O`, > 80000 nM (inactive). Consider `NC1=NC[C@H](Cc2ccc(O)cc2)N1CCCCC1CCCCC1`, for which the IC50 in test [1] was > 80000 nM (inactive).

For `CCc1ccc(-c2nc(CS(=O)CC(=O)NCc3ccco3)c(C)o2)cc1` (stereo not drawn), in test [1], the IC50 was > 80000 nM (inactive).

Take `COc1ccc(-c2c[n+]3c(n2-c2ccc(C)cc2)CCCCC3)cc1`: the IC50 in test [1] was > 80000 nM (inactive). On to `Cn1nc(C(C)(C)C)cc1C(=O)NCc1ccc(N2CCCC2=O)cc1`, for which the IC50 in test [1] was > 80000 nM (inactive). On the same count and under the same terms, to `COc1cc2nc(NC(=O)c3ccccc3)sc(=O)c2cc1OC` belongs 444 nM; to `COc1ccc(-c2cc3nc(C)n(N)c(=O)c3s2)cc1`, 673 nM. For `COc1cc(SC)ccc1C(=O)Nc1nc2ccccc2[nH]1`, the IC50 in test [1] is below 160 nM. Same read-out and setting: to `O=C(NCCc1ccccc1)c1ccc2c(c1)OCCCO2` belongs 366 nM; to `Cc1cc(CSc2ccccc2)ccc1NC(=O)c1ccc(CN2CCOCC2)cc1`, > 80000 nM (inactive). Still for that read-out and setting: to `CN(C)c1ccc(-c2n(C)c3ccccc3[n+]2C)cc1` belongs > 80000 nM (inactive); to `CCOc1cc(S(=O)(=O)NCc2ccncc2)ccc1Cl`, > 80000 nM (inactive); to `O=C(NCCc1ccccc1F)c1ccc2c(c1)OCCO2`, 675 nM. On to `COc1cccc2c1C(=O)c1c(O)c3c(c(O)c1C2=O)C[C@@](O)(C(=O)CO)C[C@@H]3O[C@H]1C[C@H](N)[C@H](O)[C@H](C)O1`, for which the IC50 in test [1] was > 80000 nM (inactive). On the same count and under the same terms, the result for `CC[n+]1c(C=C2C=C(C)OC(C)=C2)sc2ccccc21` reads > 80000 nM (inactive); that for `Cc1ccc(C(=O)Nc2cccc(C(F)(F)F)c2)cc1NC(=O)c1ccno1`, 4090 nM; that for `C=C1C(O)[C@@H]2O[C@]3(CC[C@H](/C=C/C(C)[C@@H]4CC(C)=CC5(O[C@H](C[C@@](C)(O)C(=O)O)CCC5O)O4)O3)CC[C@H]2O[C@@H]1C(O)CC(C)[C@H]1OC2(CCCCO2)CCC1C` (stereo partly drawn), below 160 nM. On to `CCn1c(C)nc2cc(-c3nc4n(n3)Cc3ccccc3-4)ccc21`, for which, in test [1], the IC50 is 198 nM. In the case of `COc1cc([N+](=O)[O-])cc(/C=N/NC(=O)c2ccc(NC(=O)c3ccc(C)cc3)cc2)c1O`, the IC50 in test [1] is 1020 nM. As to `CCOc1ccc(-c2cc(CCCC(=O)Nc3cccc(OC)c3)no2)cc1`, the 50% inhibitory concentration (IC50) in test [1] is 11300 nM. `COc1ccccc1C(=O)Nc1nc(-c2ccc(S(=O)(=O)N3CCOCC3)cc2)cs1`: the half-maximal inhibitory concentration (IC50) in test [1] is 7170 nM.

As to `CN(C)c1cc[n+](CC(=O)c2ccc(-c3ccccc3)cc2)cc1`, the IC50 in test [1] was 47400 nM (inactive). For `CCc1cc2c(Sc3nc4ccccc4s3)ncnc2s1`, the IC50 in test [1] is below 160 nM. On the same count and under the same terms, to `CCN1/C(=C/c2ccc3cc(C)ccc3[n+]2CC)Sc2ccccc21` belongs > 80000 nM (inactive); to `CC(=O)OC(C)(C)/C=C/C(=O)[C@](C)(O)C1[C@H](O)C[C@@]2(C)C3CC=C4C(C[C@H](O)C(=O)C4(C)C)[C@]3(C)C(=O)C[C@]12C` (stereo partly drawn), 7020 nM. Take `COc1cccc(NC(=O)Nc2cccc(C(=O)O)c2)c1`: in test [1], the IC50 was 1620 nM. For `CCCCCCCCCn1ccc(=N)cc1`, in test [1], the IC50 was 46200 nM (inactive).

As for `C[C@@H]1O[C@@H](O[C@@H]2C=C3CCC4C(CC[C@]5(C)[C@@H](c6ccc(=O)oc6)CC[C@]45O)[C@@]3(C)CC2)[C@H](O)[C@H](O)[C@H]1O` (stereo partly drawn), in test [1], the half-inhibitory concentration (IC50) was below 160 nM. Take `N=c1c2c(n(Cc3ccc(Br)cc3)c3c1CCC3)CCCC2`: in test [2], the inhibition (usually the share of the control response that was lost under treatment) is 60.6% (inactive).

Take `CN(C(=O)OC(C)(C)C)c1ccc(-c2nc3ccccc3s2)cc1`: the concentration for half-maximal inhibition (IC50) in test [1] is below 160 nM. Turning to `Cc1cc(C(=O)COC(=O)c2ccccc2O)c(C)n1CC1CCCO1` (stereo not drawn), in test [1], the 50% inhibitory concentration (IC50) is 267 nM. Same read-out and setting: the result for `OCCCNc1cc(-c2ccnc(Nc3cccc(Cl)c3)n2)ccn1` reads below 160 nM; that for `COC(=O)CCn1nnc(-c2ccc(C(C)C)cc2)n1`, below 160 nM; that for `CCCCCCCCNc1ncnc2ccccc12`, > 80000 nM (inactive). Consider `Cc1ccc2nc(NC(=O)CCCC(=O)O)sc2c1`, for which the IC50 in test [1] is 2130 nM. Regarding `C=CCn1c(C)cc(C(=O)CN2C(=O)c3ccccc3S2(=O)=O)c1C`, in test [1], the IC50 was 656 nM.

Take `CCCCCc1ccc(OCCCC[n+]2cccc(C)c2)c(CCCCC)c1`: the IC50 in test [1] is > 80000 nM (inactive). As to `O=C(Nc1ccc(Cl)cc1)Nc1cccc(C(=O)O)c1`, in test [1], the IC50 was 2220 nM. Regarding `O=C(/C=C/c1ccccc1)Nc1cccc(C(=O)O)c1`, the IC50 in test [1] was 620 nM. In the case of `C#CC(=O)N(c1cccc(OC)c1)C(C(=O)NC1CCCC1)c1cccs1` (stereo not drawn), the IC50 in test [1] is 219 nM. The same measure, in the same setting: the result for `CC1CCCN(c2ccc([N+](=O)[O-])cc2C(=O)c2ccccc2)C1` (stereo not drawn) reads > 80000 nM (inactive); that for `COc1cc(NC(=O)COc2cc(O)c3c(c2)OC(C)(C)CC3=O)cc(OC)c1OC`, 36900 nM (inactive); that for `COc1cccc2c1C(CO)N1C(C#N)C3CC(C(=O)O)C(C1C2)N3C` (stereo not drawn), 253 nM. For the molecule `O=C(CN1C(=O)c2ccccc2S1(=O)=O)c1ccc2c(c1)OCCCO2`, the IC50 in test [1] was below 160 nM. Regarding `O=C(CCl)N=c1sccn1Cc1ccc(Cl)cc1Cl`, the IC50 in test [1] was below 160 nM.

In the case of `O=C(CN1C(=O)c2ccccc2S1(=O)=O)c1ccc2c(c1)OCCO2`, the 50% inhibitory concentration (IC50) in test [1] is below 160 nM. As to `COc1ccc(/C=C2\SC(=O)N(CCCC(=O)Nc3cc(Cl)ccc3C(=O)O)C2=O)cc1`, the IC50 in test [1] is 331 nM. Still for that read-out and setting: to `COc1ccc(C(=O)CN2C(=O)c3ccccc3S2(=O)=O)cc1` belongs 691 nM; to `Cn1nc(CC(=O)Nc2ccc3c(c2)CCC3)c2ccccc2c1=O`, > 80000 nM (inactive). For `COc1ccc(-c2nc(-c3ccccn3)no2)cc1`, the IC50 in test [1] is 872 nM. In the case of `CCCCCCCCn1ccc(=N)cc1`, the IC50 in test [1] is > 80000 nM (inactive).

As to `C#CC(=O)N(c1cc(OC)ccc1OC)C(C(=O)NC1CCCC1)c1cccs1` (stereo not drawn), the IC50 in test [1] is 219 nM. Still for that read-out and setting: to `CC(C)c1ccc(-c2nnn(CCC(=O)O)n2)cc1` belongs 202 nM; to `Cc1cc2sc3ccc(C#CC4(O)CCCCC4)cc3c(=O)c2cc1C`, below 160 nM.

`COc1ccc(C(=O)Nc2nc3ccccc3s2)c(OC)c1`: the IC50 in test [1] is 275 nM.

In the case of `O=S(=O)(NCC1CCCO1)c1ccc(-c2ccc(S(=O)(=O)NCC3CCCO3)cc2)cc1` (stereo not drawn), in test [1], the IC50 was > 80000 nM (inactive). Turning to `CC(Nc1ncnc2sccc12)c1ccccc1` (stereo not drawn), the IC50 in test [1] was 64400 nM (inactive). The same measure, in the same setting: to `Cc1ccc(OCCN2CCN(c3ncnc4sc(C)c(C)c34)CC2)cc1` belongs > 80000 nM (inactive). Take `Nc1nc(F)nc2c1ncn2[C@@H]1O[C@H](CO)[C@@H](O)[C@H]1O`: in test [1], the IC50 was 1370 nM.

As to `c1ccc2sc(Sc3ncnc4sccc34)nc2c1`, the concentration for half-maximal inhibition (IC50) in test [1] is 197 nM. Turning to `COc1ccc(CCNc2ncnc3sccc23)cc1OC`, in test [1], the IC50 is 77400 nM (inactive). `COc1ccc(NS(=O)(=O)c2cccc(NC(=O)c3ccc(Cl)nc3)c2)cc1`: in test [1], the IC50 is 70300 nM (inactive). As to `N=c1ccn2c(n1)O[C@H]1[C@@H](CO)[C@H](O)O[C@H]12`, the inhibition in test [2] is 48.5%. Turning to `CC(C)(C)c1ccc(C(=O)N2CCCCCC2=O)cc1`, the half-inhibitory concentration (IC50) in test [1] was 579 nM.

Consider `C=C1C(=O)O[C@@H]2C[C@@H](C)[C@@H]3C=CC(=O)[C@@]3(C)[C@@H](OC(C)=O)[C@H]12`, for which the IC50 in test [1] was > 80000 nM (inactive). For the molecule `CCCCCn1c(=O)[nH]c2cc(C(=O)N3CCN(Cc4ccc5c(c4)OCO5)CC3)ccc2c1=O`, the IC50 in test [1] was > 80000 nM (inactive). `Cc1ccnc(NC(=O)CCCOc2cc(=O)n(C)c3ccccc23)c1`: in test [1], the IC50 is 8540 nM.

Source of the values: PubChem BioAssay AID489034 (Sanford-Burnham Center for Chemical Genomics, 2010).
